{
  "source": "patent US10456446B2",
  "about": "“Use of human small leucine zipper protein in osteogenesis procedure” (Korea University Research and Business Foundation, priority 2013, dated 2019)",
  "key": {"PPARγ2 [1]": {"system": "PPARγ2", "experiment": "GST / His pull-down and immunoprecipitation of sLZIP with PPARγ2", "format": "binding", "conditions": "GST pull-down, transfected 293T cells", "description": "293T cells were obtained and washed with cold PBS. The cells were re-suspended in an IP lysis buffer [25 mM of Tris-HCl (pH 7.4), 150 mM of NaCl, 1 mM of EDTA, 1% NP-40 and 5% glycerol, and a protease inhibitor]. A suspension was centrifuged at 16,000×g for 20 minutes at 4° C. Supernatants were collected and incubated with 0.5 μg of appropriate antibodies and 25 μl of protein A/G-agarose or a GST Sepharose 4B bead for 24 hours at 4° C. A protein complex was centrifuged at 1,000×g with a cold IP lysis buffer for 1 minute and washed five times. The final pellet was re-suspended in 50 μl of an SDS-sample buffer containing 5% β-mercaptoethanol and heated for 10 minutes at 100° C. A protein sample was isolated in SDS-PAGE (8 to 10%) and transferred to nitrocellulose membranes. Co-precipitated proteins were detected according to western blotting using specific antibodies.\nIn order to examine whether the transcriptional activity of PPARγ2 is regulated by interaction with sLZIP, interaction between sLZIP and PPARγ2 was examined. For this purpose, 293T cells were transfected with GST-sLZIP and Myc-PPARγ2. Cell lysates were obtained and GST pull-down analysis was performed using a glutathione 4B bead. A protein complex was analyzed in SDS-PAGE and then immunoblotted with specific antibodies (FIG. 2A). The 293T cells were transfected with GST-PPARγ2 and Flag-sLZIP, and identified according to GST-pull-down analysis (FIG. 2B). PPARγ2 was translated in vitro by a TNT translation system (Promega). His-sLZIP proteins were expressed in BL21 cells using an IPTG-inducement system. Purified His-sLZIP proteins were subjected to His pull-down analysis. Proteins bound to the bead were analyzed in SDS-PAGE, and then immunoblotted with anti-PPARγ2 and anti-His antibodies (FIG. 2C). GFP-PPARγ2 and Flag-sLZIP constructs were expressed in C3H10T1/2 cells, and analyzed using mouse anti-Flag and Texas Red-labeled anti-mouse antibodies under a fluorescence microscope. The nucleus was stained with DAPI (FIG. 2D).\nActivation of many nuclear receptors depends on a supplement of coactivators. Therefore, a domain of sLZIP necessary for binding with PPARγ2 was examined. For this purpose, 293T cells were transfected with GST-full length sLZIP (1-354), N-terminal deletion mutant sLZIP (1-228), C-terminal deletion mutant sLZIP (229-354), CC-terminal deletion mutant sLZIP (297-354) and PPARγ2. Cell lysates were obtained and GST pull-down analysis was performed using a glutathione 4B bead. A protein complex was analyzed in SDS-PAGE, and then immunoblotted with specific antibodies (FIG. 3A). 293T cells were transfected with Flag-full length PPARγ2, full length PPARγ2, N-terminal deletion mutant PPARγ2 (1-310), C-terminal deletion mutants PPARγ2 (139-505) and GST-sLZIP. Cell lysates were obtained and GST pull-down analysis was performed. A protein complex was analyzed in SDS-PAGE, and then immunoblotted with anti-GST and anti-Flag antibodies (FIG. 3B).\nFor this purpose, 293T cells were transfected with GST-PPARγ2 and Flag-sLZIP and were treated or not treated with 10 nM of RZD for 24 hours. Cell lysates were obtained and GST pull-down analysis (FIG. 5A) and immunoprecipitation (FIG. 5B) were performed using a glutathione 4B bead. A protein complex was analyzed in SDS-PAGE, and immunoblotted with anti-GST and anti-Flag antibodies. GST-PARγ2 and Flag-sLZIP were expressed in the 293T cells, and the cells were treated with 10 nM of RZD according to time of day. The cell lysates were GST pull-down analyzed (FIG. 5C). 293T cells were transfected with GST-HDAC3 and Flag-sLZIP, and treated or not treated with 10 nM of RZD for 24 hours. The cell lysates were GST pull-down analyzed (FIG. 5D). Flag-sLZIP was expressed in the 293T cells, and the cells were treated with 10 nM of RZD for 24 hours. Immunoprecipitation analysis of the cell lysates was performed using anti-NCoR1 antibodies. […]"}, "PPARγ2 [2]": {"target": "T1, PPARγ2 (Homo sapiens, UniProt P37231)", "T1 construct": "expressed in transfected cells; host or cells: 293T", "T1 sequence (P37231 1-505)": "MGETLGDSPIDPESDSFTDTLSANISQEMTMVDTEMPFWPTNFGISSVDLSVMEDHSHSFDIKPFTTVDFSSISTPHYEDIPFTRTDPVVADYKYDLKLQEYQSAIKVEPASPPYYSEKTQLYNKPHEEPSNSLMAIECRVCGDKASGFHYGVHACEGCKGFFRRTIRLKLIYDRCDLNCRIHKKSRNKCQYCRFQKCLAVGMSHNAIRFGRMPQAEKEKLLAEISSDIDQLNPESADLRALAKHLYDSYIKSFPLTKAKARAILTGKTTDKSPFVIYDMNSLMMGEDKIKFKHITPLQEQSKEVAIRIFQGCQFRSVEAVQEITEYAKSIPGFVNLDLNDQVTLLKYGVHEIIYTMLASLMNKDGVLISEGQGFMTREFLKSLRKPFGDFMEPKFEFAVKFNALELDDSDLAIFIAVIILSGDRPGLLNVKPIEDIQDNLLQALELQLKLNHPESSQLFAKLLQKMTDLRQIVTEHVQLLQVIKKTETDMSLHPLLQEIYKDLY", "experiment": "PPARγ2 transcriptional activity, FABP4-Luc luciferase reporter in transfected 293T cells", "format": "cell-based", "conditions": "for sLZIP-mediated PPARγ2 transcriptional activity: 100 nM si-RNA, with or without 10 nM RZD", "description": "C3H10T1/2 and 293T cells were plated in a 12-well culture dish at a density of 2×10^5 cells/well and incubated for 24 hours. Then, according to instructions of the manufacturer, the cells were transfected with a 0.2 μg of reporter genes and 0.1 to 0.5 μg of a laboratory plasmid using Lipofectamine 2000 or Genefectine. After 24 hours, the cells were cultured in a serum-free DMEM with or without 10 nM of rosiglitazone. siRNAs were prepared using sLZIP and HDAC target sequences (Table 1). For an RNA interference experiment, according to instructions of the manufacturer, the cells were transfected with scrambled control group RNA and appropriate siRNAs using Lipofectamine 2000. Human MSC and C3H10T/1/2 cells were infected with an adenovirus vector containing cDNA of human sLZIP or an empty vector. The infected medium was exchanged with a fresh medium after two hours.\nAppropriately transfected cells were washed with cold PBS twice, and a reporter lysis buffer (Promega) was used and lysed in a culture dish. Luciferase analysis was performed using a luciferase analysis system (Promega Corporation, Madison, Wis.). A luciferase activity was recorded in Luminometer 20/20^n (Turner BioSystems, Sunnyvale, Calif.) according to instructions of the manufacturer. The luciferase activity was normalized to a β-galactosidase activity. For β-galactosidase analysis, CMV-β-galactosidase was transfected with luciferase reporter genes. All pieces of data were represented as mean±standard deviation of the results from at least three independent experiments.\nIn order to examine an effect of sLZIP on the transcriptional activity of PPARγ2, 293T cells were temporarily transfected with PPARγ2 (0.5 μg), β-galactosidase (0.1 μg), FABP4-Luc reporter genes (0.2 μg) and sLZIP at different contents (0.1 to 0.5 μg). After the transfection, the cells were stimulated with or without 10 nM of rosiglitazone (RZD) (FIG. 1A), pioglitazone (PZD) (FIG. 1B), and troglitazone (TZD) (FIG. 1C). A relative luciferase activity was analyzed with or without cell ligand treatment 24 hours after transfection. Also, the 293T cells were transiently transfected with si-sLZIP at different contents (50 and 100 nM), and the cells were treated or not treated with RZD (FIG. 1D). FABP4-Luc stable C3H10T1/2 cells were infected with a sLZIP-expressing adenovirus, and then differentiated into adipocytes for 4 days (FIG. 1E). A luciferase activity was normalized to a β-galactosidase activity and represented as a relative activity (fold change). All experiments were repeated three times, and bars in the graph represent mean±standard deviation. *, P<0.05; **, P<0.01\nFor this purpose, 293T cells were transiently transfected with PPARγ2 (0.5 μg), β-galactosidase (0.1 μg), FABP4-Luc reporter genes (0.2 μg) and sLZIP (0.1 μg). After the transfection, the cells were stimulated with or without 10 nM of RZD and 10 nM of TSA (FIG. 4A). A promoter activity was measured according to luciferase analysis. In the 293T cells, FABP4-Luc reporter genes, sLZIP, PPAR, β-galactosidase, and 100 nM of si-RNAs and HDAC1, 2, 3 and 8 for a control group were expressed. After the transfection, the cells were stimulated with or without 10 nM of RZD, and a promoter activity was measured (FIG. 4B). 293T cells were temporarily transfected with FABP4-Luc reporter genes, PPARγ2, β-galactosidase, HDAC3 (0.5 μg) and sLZIP (0.1 μg). After the transfection, the cells were stimulated with or without 10 nM of RZD, and luciferase analysis was performed (FIG. 4C). A luciferase activity was normalized to a β-galactosidase activity and represented as a relative intensity (fold change). All experiments were repeated three times, and bars in the graph represent mean±standard deviation. GFP-sLZIP expression constructs were expressed in C3H10T1/2 cells, rabbit anti-HDAC3 antibodies and Texas Red-labeled anti-rabbit antibodies were used and analysis was performed under a fluorescence microscope. The nucleus was stained with DAPI (FIG. 4D). […]"}},
  "note": "Ends that are not written are not given here. d = 2'-deoxy (DNA)",
  "data": [
    {"molecule": "CC domains of sLZIP: CC-terminal deletion mutant of sLZIP (297-354), contains proline-rich region (YMPQAPSAEPPLEWPFPDLFSEPLCRGPILPLQANLTRKGGWLPTGSPSVILQDRYSG; also: fused to dimerising Fc or GST)", "values": [
      {"measurement": "interaction with PPARγ2", "setting": "PPARγ2 [1]", "result": "interacted with PPARγ2"}
    ]},
    {"molecule": "HDAC3: siRNA used to knock down HDAC3, SEQ ID NO: 11 and 12 (chain 1 GCCGGUUAUCAACCAGGUA; chain 2 UACCUGGUUGAUAACCGGC; 3' dTdT, sugars by position and backbone not given here) [reference compound]", "values": [
      {"measurement": "sLZIP-mediated PPARγ2 transcriptional activity", "setting": "PPARγ2 [2]", "result": "significantly increased"}
    ]},
    {"molecule": "si-sLZIP: siRNA for sLZIP, SEQ ID NO: 5 and 6 (+dTdT) (chain 1 GGACCCAGAUGACUCCACAGCAUAU; chain 2 AUAUGCUGUGGAGUCAUCUGGGUCC; 3' dTdT, sugars by position and backbone not given here) [reference compound]", "values": [
      {"measurement": "transcriptional activity of PPARγ2 (relative luciferase activity)", "setting": "PPARγ2 [2]; si-sLZIP 50 and 100 nM, treated or not treated with RZD", "result": "increased the transcriptional activity of PPARγ2"}
    ]},
    {"molecule": "siRNA for HDAC1: siRNA against HDAC1, SEQ ID NO: 7 and 8 (chain 1 CGACUGUUUGAGAACCUUA; chain 2 UAAGGUUCUCAAACAGUCGCU; 3' dTdT, sugars by position and backbone not given here) [reference compound]", "values": [
      {"measurement": "sLZIP-mediated PPARγ2 transcriptional activity", "setting": "PPARγ2 [2]", "result": "not involved in sLZIP-mediated PPARγ2 regulation"}
    ]},
    {"molecule": "siRNA for HDAC2: siRNA against HDAC2, SEQ ID NO: 9 and 10 (chain 1 GGUCAAUAAGACCAGAUAA; chain 2 UUAUCUGGUCUUAUUGACCG; 3' dTdT, sugars by position and backbone not given here) [reference compound]", "values": [
      {"measurement": "sLZIP-mediated PPARγ2 transcriptional activity", "setting": "PPARγ2 [2]", "result": "not involved in sLZIP-mediated PPARγ2 regulation"}
    ]},
    {"molecule": "siRNA for HDAC8: siRNA against HDAC8, SEQ ID NO: 13 and 14 (chain 1 CAUUCAGGAUGGCAUACAA; chain 2 UUGUAUGCCAUCCUGAAUGGG; 3' dTdT, sugars by position and backbone not given here) [reference compound]", "values": [
      {"measurement": "sLZIP-mediated PPARγ2 transcriptional activity", "setting": "PPARγ2 [2]", "result": "not involved in sLZIP-mediated PPARγ2 regulation"}
    ]},
    {"molecule": "C domains of sLZIP: C-terminal deletion mutant of sLZIP (229-354) (protein, left off: a dimerising Fc or GST) MYSSDTRGSLPAEHGVLSRQLRALPSEDPYQLELPALQSEVPKDSTHQWLDGSDCVLQAPGNTSCLLHYMPQAPSAEPPLEWPFPDLFSEPLCRGPILPLQANLTRKGGWLPTGSPSVILQDRYSG", "values": [
      {"measurement": "interaction with PPARγ2", "setting": "PPARγ2 [1]", "result": "interacted with PPARγ2"}
    ]}
  ]
}
